This is an account of results in publication PMC7427733, “Novel xylose transporter Cs4130 expands the sugar uptake repertoire in recombinant Saccharomyces cerevisiae strains at high xylose concentrations” (Biotechnology for Biofuels, 2020).

In experiment [1] the target is T1, Gxf1 (Sungouiella intermedia, UniProt Q2MDH1).
T1 sequence (Q2MDH1 1-547): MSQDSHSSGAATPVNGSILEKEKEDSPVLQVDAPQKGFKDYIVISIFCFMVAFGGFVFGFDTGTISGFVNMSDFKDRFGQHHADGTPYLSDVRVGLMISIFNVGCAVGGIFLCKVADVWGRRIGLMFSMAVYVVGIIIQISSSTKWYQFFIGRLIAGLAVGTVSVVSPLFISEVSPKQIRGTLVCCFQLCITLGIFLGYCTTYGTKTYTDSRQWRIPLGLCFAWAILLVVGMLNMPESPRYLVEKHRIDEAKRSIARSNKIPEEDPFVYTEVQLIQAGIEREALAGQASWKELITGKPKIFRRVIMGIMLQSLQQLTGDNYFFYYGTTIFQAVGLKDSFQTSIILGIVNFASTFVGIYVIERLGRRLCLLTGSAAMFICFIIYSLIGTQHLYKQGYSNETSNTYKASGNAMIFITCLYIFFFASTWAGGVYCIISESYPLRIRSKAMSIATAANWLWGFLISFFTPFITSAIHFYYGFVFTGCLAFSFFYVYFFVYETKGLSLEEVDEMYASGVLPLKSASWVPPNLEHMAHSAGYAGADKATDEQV
In words: growth complementation (spot assay) and sugar consumption (HPLC) in transporter-null yeast. It is filed as cell-based. As to conditions: S. cerevisiae EBY_Xyl1, 30 °C, 20 g/L glucose spot assay; 10 g/L glucose with 10 g/L xylose in fermentation; uptake inferred.

Experiment [2] deals with T1, Gxf1. Described as above. Type of experiment: cell-based. As to conditions: S. cerevisiae EBY_Xyl1, 30 °C, xylose 5-50 g/L; uptake inferred.

On to `OC[C@H]1OC(O)[C@H](O)[C@@H](O)[C@@H]1O` (some centres unmarked) [glucose], for which, at Gxf1 [1], the “growth complementation (spot assay) and sugar consumption (HPLC) in transporter-” value was “Cs3894 and Gxf1 were able to support better and similar patterns of growth on glucose”.

`OC1OC[C@@H](O)[C@H](O)[C@H]1O` (some centres unmarked) [xylose]: the “growth complementation (spot assay) and sugar consumption (HPLC) in transporter-” value on Gxf1 [2] is “The facilitator Gxf1 restored growth in all xylose concentrations evaluated”.
